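How tested: cells in 96-well plates exposed to compound for 48 hours at five concentrations. GI50: concentration for 50% inhibition of growth.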 Active and inactive are the calls of the source. No stated cut-off is given here; in the data, active = GI50 up to about 1.1 µM and inactive = higher.
Experiments:
Assay in all cases: NCI-60 cell line screen, 48 h
EKVX = tested on: EKVX
HT-29 = tested on: HT-29
UACC-62 = tested on: UACC-62
COLO 205 = tested on: COLO 205
SR = tested on: SR
A498 = tested on: A498
UACC-257 = tested on: UACC-257
OVCAR-8 = tested on: OVCAR-8
RXF 393 = tested on: RXF 393
CCRF-CEM = tested on: CCRF-CEM
HOP-62 = tested on: HOP-62
SF-268 = tested on: SF-268
Malme-3M = tested on: Malme-3M
MDA-MB-231 = tested on: MDA-MB-231
ACHN = tested on: ACHN
SF-295 = tested on: SF-295
NCI-H226 = tested on: NCI-H226
MCF7 = tested on: MCF7
K562 = tested on: K562
MDA-N = tested on: MDA-N
SNB-19 = tested on: SNB-19
PC-3 = tested on: PC-3
RPMI-8226 = tested on: RPMI-8226
HL-60 = tested on: HL-60
DU-145 = tested on: DU-145
MDA-MB-435 = tested on: MDA-MB-435
OVCAR-5 = tested on: OVCAR-5
HCT-116 = tested on: HCT-116
LOX IMVI = tested on: LOX IMVI
NCI-H23 = tested on: NCI-H23
NCI/ADR-RES = tested on: NCI/ADR-RES
NCI-H460 = tested on: NCI-H460
OVCAR-4 = tested on: OVCAR-4
SK-MEL-5 = tested on: SK-MEL-5
TK-10 = tested on: TK-10
CAKI-1 = tested on: CAKI-1
786-0 = tested on: 786-0
NCI-H522 = tested on: NCI-H522
BT-549 = tested on: BT-549
Hs-578T = tested on: Hs-578T
SF-539 = tested on: SF-539
IGROV-1 = tested on: IGROV-1
SK-MEL-28 = tested on: SK-MEL-28
OVCAR-3 = tested on: OVCAR-3
UO-31 = tested on: UO-31
A549 = tested on: A549
U-251 = tested on: U-251
SK-MEL-2 = tested on: SK-MEL-2
KM12 = tested on: KM12
MOLT-4 = tested on: MOLT-4
SW-620 = tested on: SW-620
M14 = tested on: M14
SN12C = tested on: SN12C
HCT-15 = tested on: HCT-15
SNB-75 = tested on: SNB-75
T47D = tested on: T47D
SK-OV-3 = tested on: SK-OV-3
HOP-92 = tested on: HOP-92

COC(=O)[C@@H]1CC(C(CN)c2cn(C(=O)OC(C)(C)C)c3ccccc23)C(=O)N1C(=O)OC(C)(C)C (stereo not given in full)
GI50 (EKVX): 19.4 µM (inactive) | GI50 (HT-29): 24.8 µM (inactive) | GI50 (UACC-62): 15.1 µM (inactive) | GI50 (COLO 205): 17.3 µM (inactive) | GI50 (SR): 23.1 µM (inactive) | GI50 (A498): 20.1 µM (inactive) | GI50 (UACC-257): 17.7 µM (inactive) | GI50 (OVCAR-8): 21.7 µM (inactive) | GI50 (RXF 393): 18 µM (inactive) | GI50 (CCRF-CEM): 14.4 µM (inactive) | GI50 (HOP-62): 86.7 µM (inactive) | GI50 (SF-268): 27.5 µM (inactive) | GI50 (Malme-3M): 22.2 µM (inactive) | GI50 (MDA-MB-231): 22.4 µM (inactive) | GI50 (ACHN): 29.3 µM (inactive) | GI50 (SF-295): 21.6 µM (inactive) | GI50 (NCI-H226): 29.9 µM (inactive) | GI50 (MCF7): 23.8 µM (inactive) | GI50 (K562): 21.9 µM (inactive) | GI50 (MDA-N): 20 µM (inactive) | GI50 (SNB-19): 69.3 µM (inactive) | GI50 (PC-3): 18.4 µM (inactive) | GI50 (RPMI-8226): 10.6 µM (inactive) | GI50 (HL-60): 21.8 µM (inactive) | GI50 (DU-145): 44.2 µM (inactive) | GI50 (MDA-MB-435): 21.5 µM (inactive) | GI50 (OVCAR-5): 27.2 µM (inactive) | GI50 (HCT-116): 44.3 µM (inactive) | GI50 (LOX IMVI): 14.8 µM (inactive) | GI50 (NCI-H23): 35.8 µM (inactive) | GI50 (NCI/ADR-RES): 17.2 µM (inactive) | GI50 (NCI-H460): 23.6 µM (inactive) | GI50 (OVCAR-4): 20.9 µM (inactive) | GI50 (SK-MEL-5): 17.2 µM (inactive) | GI50 (TK-10): 38.9 µM (inactive) | GI50 (CAKI-1): 29.2 µM (inactive) | GI50 (786-0): 31.3 µM (inactive) | GI50 (NCI-H522): 22.5 µM (inactive) | GI50 (BT-549): 31.6 µM (inactive) | GI50 (Hs-578T): 28.2 µM (inactive) | GI50 (SF-539): 13.8 µM (inactive) | GI50 (IGROV-1): 17.9 µM (inactive) | GI50 (SK-MEL-28): 17.3 µM (inactive) | GI50 (OVCAR-3): 24.6 µM (inactive) | GI50 (UO-31): 32.4 µM (inactive) | GI50 (A549): 35.3 µM (inactive) | GI50 (U-251): 38.9 µM (inactive) | GI50 (SK-MEL-2): 22.4 µM (inactive) | GI50 (KM12): 52.2 µM (inactive) | GI50 (MOLT-4): 17.1 µM (inactive) | GI50 (SW-620): 50.7 µM (inactive) | GI50 (M14): 50.7 µM (inactive) | GI50 (SN12C): 17.8 µM (inactive) | GI50 (HCT-15): 28.1 µM | GI50 (SNB-75): 6.31 µM (inactive) | GI50 (T47D): 44.2 µM (inactive)

CCCOC(=O)C1C2CCC(O2)C1C(=O)O (stereo not given)
GI50 (EKVX): > 100 µM (inactive) | GI50 (HT-29): > 100 µM (inactive) | GI50 (UACC-62): > 100 µM (inactive) | GI50 (COLO 205): > 100 µM (inactive) | GI50 (SR): > 100 µM (inactive) | GI50 (A498): > 100 µM (inactive) | GI50 (UACC-257): > 100 µM (inactive) | GI50 (OVCAR-8): > 100 µM (inactive) | GI50 (RXF 393): > 100 µM (inactive) | GI50 (CCRF-CEM): > 100 µM (inactive) | GI50 (HOP-62): > 100 µM (inactive) | GI50 (SF-268): > 100 µM (inactive) | GI50 (Malme-3M): > 100 µM (inactive) | GI50 (MDA-MB-231): > 100 µM (inactive) | GI50 (ACHN): > 100 µM (inactive) | GI50 (SF-295): > 100 µM (inactive) | GI50 (NCI-H226): > 100 µM (inactive) | GI50 (MCF7): > 100 µM (inactive) | GI50 (K562): > 100 µM (inactive) | GI50 (MDA-N): > 100 µM (inactive) | GI50 (SNB-19): > 100 µM (inactive) | GI50 (PC-3): > 100 µM (inactive) | GI50 (RPMI-8226): > 100 µM (inactive) | GI50 (HL-60): > 100 µM (inactive) | GI50 (DU-145): > 100 µM (inactive) | GI50 (MDA-MB-435): > 100 µM (inactive) | GI50 (OVCAR-5): > 100 µM (inactive) | GI50 (HCT-116): > 100 µM (inactive) | GI50 (LOX IMVI): > 100 µM (inactive) | GI50 (NCI-H23): > 100 µM (inactive) | GI50 (SK-OV-3): 61 µM (inactive) | GI50 (NCI/ADR-RES): > 100 µM (inactive) | GI50 (OVCAR-4): > 100 µM (inactive) | GI50 (SK-MEL-5): > 100 µM (inactive) | GI50 (TK-10): > 100 µM (inactive) | GI50 (CAKI-1): > 100 µM (inactive) | GI50 (786-0): > 100 µM (inactive) | GI50 (NCI-H522): > 100 µM (inactive) | GI50 (BT-549): > 100 µM (inactive) | GI50 (Hs-578T): > 100 µM (inactive) | GI50 (IGROV-1): > 100 µM (inactive) | GI50 (SK-MEL-28): > 100 µM (inactive) | GI50 (OVCAR-3): > 100 µM (inactive) | GI50 (UO-31): > 100 µM (inactive) | GI50 (A549): > 100 µM (inactive) | GI50 (U-251): > 100 µM (inactive) | GI50 (SK-MEL-2): > 100 µM (inactive) | GI50 (KM12): > 100 µM (inactive) | GI50 (MOLT-4): > 100 µM (inactive) | GI50 (SW-620): > 100 µM (inactive) | GI50 (M14): > 100 µM (inactive) | GI50 (SN12C): > 100 µM (inactive) | GI50 (HCT-15): > 100 µM | GI50 (SNB-75): 36.3 µM (inactive) | GI50 (T47D): > 100 µM (inactive)

OCc1cn(Cc2ccccc2)c2ccccc12
GI50 (EKVX): > 73.1 µM (inactive) | GI50 (HT-29): 1.71 µM (inactive) | GI50 (UACC-62): 0.646 µM (active) | GI50 (COLO 205): 0.444 µM (active) | GI50 (SR): 12.4 µM (inactive) | GI50 (OVCAR-8): 13 µM (inactive) | GI50 (RXF 393): < 0.0316 µM (active) | GI50 (CCRF-CEM): 0.488 µM (active) | GI50 (HOP-62): 5.32 µM (inactive) | GI50 (SF-268): 14 µM (inactive) | GI50 (Malme-3M): 5.46 µM (inactive) | GI50 (MDA-MB-231): 19.5 µM (inactive) | GI50 (ACHN): 28.1 µM (inactive) | GI50 (MCF7): 0.612 µM (active) | GI50 (K562): 4.48 µM (inactive) | GI50 (MDA-N): 35.6 µM (inactive) | GI50 (SNB-19): > 64.6 µM (inactive) | GI50 (PC-3): 30.1 µM (inactive) | GI50 (RPMI-8226): 2.16 µM (inactive) | GI50 (HL-60): 5.9 µM (inactive) | GI50 (DU-145): > 21.6 µM (inactive) | GI50 (MDA-MB-435): > 51.9 µM (inactive) | GI50 (OVCAR-5): 0.375 µM (active) | GI50 (HCT-116): 0.555 µM (active) | GI50 (LOX IMVI): 19.5 µM (inactive) | GI50 (NCI-H23): 14.4 µM (inactive) | GI50 (SK-OV-3): 11 µM (inactive) | GI50 (NCI/ADR-RES): 15.2 µM (inactive) | GI50 (NCI-H460): 0.135 µM (active) | GI50 (OVCAR-4): 0.0378 µM (active) | GI50 (SK-MEL-5): 25.7 µM (inactive) | GI50 (TK-10): < 0.0359 µM (active) | GI50 (CAKI-1): < 0.0461 µM (active) | GI50 (786-0): 10.7 µM (inactive) | GI50 (NCI-H522): 4.65 µM (inactive) | GI50 (HOP-92): 5.51 µM (inactive) | GI50 (BT-549): 6.59 µM (inactive) | GI50 (Hs-578T): 12.9 µM (inactive) | GI50 (SF-539): > 34.5 µM (inactive) | GI50 (IGROV-1): < 0.0356 µM (active) | GI50 (SK-MEL-28): > 59.3 µM (inactive) | GI50 (OVCAR-3): 0.232 µM (active) | GI50 (UO-31): > 87.7 µM (inactive) | GI50 (A549): 9.02 µM (inactive) | GI50 (U-251): 1.02 µM (active) | GI50 (SK-MEL-2): 2.56 µM (inactive) | GI50 (KM12): > 48 µM (inactive) | GI50 (MOLT-4): > 47.3 µM (inactive) | GI50 (SW-620): 1.36 µM (inactive) | GI50 (M14): > 32.6 µM (inactive) | GI50 (SN12C): 26 µM (inactive) | GI50 (HCT-15): 10.8 µM | GI50 (SNB-75): 1.51 µM (inactive) | GI50 (T47D): < 0.0411 µM (active)

— ChEMBL document CHEMBL1201862, “PubChem BioAssay data set” (2004)
